Data as given in patent US20050042293A1, “Polymeric systems for drug delivery and uses thereof” (The University of British Columbia, priority 1997, published 2005).
Values after ≈ are worked out from the molar mass of the structure shown. Read-outs that look alike come from different tables or passages of the source.

What was measured:
[1] = cited from earlier work
LNCaP cells [2] = test: LNCaP cell proliferation in vitro (crystal violet, 492 nm absorbance); assay type: cell-based, human; conditions: for % Growth: relative to control wells (100%)
Procedure: LNCap cells are human metastatic prostate adenocarcinoma cells that are used as a model for prostate cancer (see, e.g., Pousette et al., Prostate 31:198, 1997). In one study, LNCaP cells were seeded at concentrations of 2×10^3 and 1×10^3 cells/well in 96 well plates. […] After incubation, the cells were fixed with 1% glutaraldehyde solution, and stained for 5 minutes with 0.5% crystal violet. The dye was successively eluted with 100 μl of buffer solution and the absorbance was read on a Titertek Multiskan microplate reader using a wavelength of 492 nm absorbance. Cell growth was expressed as a percentage relative to control wells in the absence of the compound (set at 100%).

LNCaP cells [3] = test: Apoptosis / DNA fragmentation assay in LNCaP cells; assay type: cell-based, human
[4] = single dose in humans; cited from earlier work
[5] = Drug-dependent solidification: time for paste pellets to break up under stirring at 300 rpm at 37° C.; assay type: physicochemical; conditions: 10% w/w drug in 40:60 (TB:MePEG350) paste; 1 hour at 37° C. then 300 rpm
Procedure: Fifteen milligrams of each composition were placed in a 20 mL glass scintillation vial and cooled to 4° C. to form uniform solid pellets. Five milliliters of ice cold phosphate-buffered saline (PBS; pH 7.4) containing 0.2% bovine serum albumin (Fraction 4, Boehringer Mannheim) were placed on top of the pellet, and the vial was placed in a stationary position in a 37° C. oven for 1 hour. At this time, a stir bar was placed in the vial and stirring was commenced at 300 rpm until the paste pellet disintegrated.

[6] = In vitro drug release from TB:MePEG350 pastes into PBS/albumin with octanol phase; assay type: physicochemical; conditions: 10% drug-loaded TB:MePEG350 (40:60) paste
Procedure: Fifteen milligrams of each composition were placed in 20 mL glass scintillation vials and cooled to 4° C. to form uniform solid pellets. Five milliliters of ice cold phosphate-buffered saline (PBS; pH 7.4) containing 0.2% bovine serum albumin (Fraction 4, Boehringer Mannheim) were placed on top of the pellet followed by 5 mL of octanol (Fisher Scientific). The octanol formed an upper imiscible phase on top of the PBS so that any drug released into the PBS would partition into the octanol phase.
UV/VIS analysis was performed by determining the absorbance at the specified wavelength. Calibration graphs of the drugs in octanol were established by measuring the absorbance of a set of standards of each drug in octanol in the 0 to 50 μg/mL concentration range.

[7] = Water solubility studies by the present inventors

Q: For `C[C@@H]1C[C@H]2[C@@H]3CCC4=CC(=O)C=C[C@]4(C)[C@@]3(F)[C@@H](O)C[C@]2(C)[C@@]1(O)C(=O)CO` [Dexamethasone], which solubility in water ([1]; water) is on record?
A: The solubility in water was 10 µg/mL (≈ 25.5 µM).

Q: For `C[C@H]1C[C@H]2[C@@H]3CCC4=CC(=O)C=C[C@]4(C)[C@@]3(F)[C@@H](O)C[C@]2(C)[C@@]1(O)C(=O)CO` [Betamethasone], which solubility in water ([1]; water) is on record?
A: Its solubility in water is 190 µg/mL (≈ 484 µM).

Q: With `O=C1c2c(O)cccc2Cc2cccc(O)c21` [Anthralin] as the compound, how does the “solubility in water (in words)” value ([1]; water) read?
A: Its value is “practically insoluble in water”.

Q: With `COc1ccc2c(c1)c(CC(=O)O)c(C)n2C(=O)c1ccc(Cl)cc1` [Indomethacin] as the compound, how does the “solubility in water (in words)” value ([1]; water) read?
A: The value was “practically insoluble in water”.

Q: Which results are given for `C[C@@H]1[C@H](O)[C@@H](C)/C=C/C=C/C=C/C=C/C=C/C=C/C=C/[C@H](O[C@@H]2O[C@H](C)[C@@H](O)[C@H](N)[C@@H]2O)C[C@@H]2O[C@](O)(C[C@@H](O)C[C@@H](O)[C@H](O)CC[C@@H](O)C[C@@H](O)CC(=O)O[C@H]1C)C[C@H](O)[C@H]2C(=O)O` [Amphotericin]?
A: solubility in water (in words) ([1]; water at pH 6 to 7): insoluble in water; solubility in water (in words) ([1]; water): insoluble in water; solubility (physchem; water): < 2 µg/mL

Q: What does the source list for `CC(=O)O[C@H]1C(=O)[C@@]2(C)[C@H]([C@H](OC(=O)c3ccccc3)[C@]3(O)C[C@H](OC(=O)[C@H](O)[C@@H](NC(=O)c4ccccc4)c4ccccc4)C(C)=C1C3(C)C)[C@]1(OC(C)=O)CO[C@@H]1C[C@@H]2O` [Paclitaxel]?
A: 492 nm Absorbance (LNCaP cells [2]; 0.001 nM, 5 days): 0.049 ± 0.05; % Growth (LNCaP cells [2]; 0.001 nM, 5 days): 100%; 492 nm Absorbance (LNCaP cells [2]; 0.01 nM, 5 days): 0.40 ± 0.03; % Growth (LNCaP cells [2]; 0.01 nM, 5 days): 81%; 492 nm Absorbance (LNCaP cells [2]; 0.05 nM, 5 days): 0.36 ± 0.02; % Growth (LNCaP cells [2]; 0.05 nM, 5 days): 73%; 492 nm Absorbance (LNCaP cells [2]; 0.1 nM, 5 days): 0.20 ± 0.03; % Growth (LNCaP cells [2]; 0.1 nM, 5 days): 40%; 492 nm Absorbance (LNCaP cells [2]; 1 nM, 5 days): 0.025 ± 0.01; % Growth (LNCaP cells [2]; 1 nM, 5 days): 5%; 492 nm Absorbance (LNCaP cells [2]; 10 nM, 5 days): 0.027 ± 0.01; % Growth (LNCaP cells [2]; 10 nM, 5 days): 5%; 492 nm Absorbance (LNCaP cells [2]; 100 nM, 5 days): 0.033 ± 0.01; % Growth (LNCaP cells [2]; 100 nM, 5 days): 6%; lowest concentration causing inhibition of LNCaP cell growth (LNCaP cells [2]; 5 days): 10 pM; IC50 (LNCaP cells [2]; Homo sapiens, LNCaP, 120 h, 5 days incubation, read-out: IC50, LNCaP cell growth): ~0.09 nM; DNA fragmentation (gel electrophoresis) (LNCaP cells [3]; 100 nM, 18 hours of treatment): induced DNA fragmentation; apoptosis by optical microscopy (LNCaP cells [3]; paclitaxel treated cells, intracellular apoptotic bodies): clear evidence of apoptosis; solubility in water ([1]; water): 1 to 2 µg/mL; solubility in water (in words) ([1]; water): insoluble in water; toxic limit [4]: 200 mg; solubility (physchem; water): < 2 µg/mL

Q: For `CN(Cc1cnc2nc(N)nc(N)c2n1)c1ccc(C(=O)N[C@@H](CCC(=O)O)C(=O)O)cc1` [methotrexate], which “disintegration time under stirring” value [5] is on record?
A: Its value is 30 s.

Q: What about the encapsulated drug released ([6]; first 24 hours) of the same compound?
A: The encapsulated drug released was “almost all the encapsulated drug”.

Q: And the solubility (physchem; pH 7.4, aqueous buffer)?
A: The solubility was > 500 µg/mL.

Q: With `COc1cc2c(c(OC)c1OC)-c1ccc(OC)c(=O)cc1[C@@H](NC(C)=O)CC2` [colchicine] as the compound, how does the “time paste pellet stayed intact under stirring” value [5] read?
A: Its value is 2.5 min.

Q: And the solubility ([7]; pH 7.4, aqueous buffer, water solubility in PBS/albumin, PBS/albumin (pH 7.4))?
A: The solubility was > 500 µg/mL.

Q: For `CC[C@@]1(O)C(=O)OCc2c1cc1n(c2=O)Cc2cc3ccccc3nc2-1` [Camptothecin], which “percentage of cells to which the drug was toxic” value (LNCaP cells [2]; 0.001 nM) is on record?
A: Its value is “over 60%”.

Q: And the “492 nm Absorbance” value (LNCaP cells [2]; 0.001 nM, 5 days)?
A: Its value is 0.169 ± 0.05.

Q: What about the “% Growth” value (LNCaP cells [2]; 0.001 nM, 5 days) of the same compound?
A: Its value is 36%.

Q: And the “492 nm Absorbance” value (LNCaP cells [2]; 0.05 nM, 5 days)?
A: The value was 0.14 ± 0.04.

Q: What about the “% Growth” value (LNCaP cells [2]; 0.05 nM, 5 days) of the same compound?
A: Its value is 29%.

Q: What about the “492 nm Absorbance” value (LNCaP cells [2]; 0.1 nM, 5 days) of the same compound?
A: Its value is 0.10 ± 0.02.

Q: What about the “% Growth” value (LNCaP cells [2]; 0.1 nM, 5 days) of the same compound?
A: Its value is 21%.

Q: What about the “492 nm Absorbance” value (LNCaP cells [2]; 1 nM, 5 days) of the same compound?
A: Its value is 0.10 ± 0.02.

Q: And the “% Growth” value (LNCaP cells [2]; 1 nM, 5 days)?
A: Its value is 21%.

Q: And the “492 nm Absorbance” value (LNCaP cells [2]; 10 nM, 5 days)?
A: The value was 0.088 ± 0.02.

Q: What about the “% Growth” value (LNCaP cells [2]; 10 nM, 5 days) of the same compound?
A: Its value is 17%.

Q: What about the “492 nm Absorbance” value (LNCaP cells [2]; 100 nM, 5 days) of the same compound?
A: Its value is 0.038 ± 0.01.

Q: And the “% Growth” value (LNCaP cells [2]; 100 nM, 5 days)?
A: Its value is 8%.

Q: What about the “IC50 against LNCaP cells (in words)” value (LNCaP cells [2]; inferred from Table 12) of the same compound?
A: The value was “femtomolar concentration range”.

Q: What about the solubility in water ([1]; water) of the same compound?
A: Its solubility in water is 1 to 2 µg/mL.

Q: And the “solubility in water (in words)” value ([1]; water)?
A: Its value is “insoluble in water”.

Q: What about the solubility ([7]; water) of the same compound?
A: The solubility was < 2 µg/mL.

Q: Which results are given for `O=c1c(-c2ccc(O)cc2)coc2cc(O)cc(O)c12` [Genistein]?
A: total encapsulated drug released ([6]; by day 7): 50%; solubility in water (in words) ([1]; water): practically insoluble in water; solubility in water (in words) ([1]; water, listed as genistein): insoluble in water; water solubility ([7]; water): approximately 1 μg/mL; solubility ([7]; water, water solubility): < 2 µg/mL

Q: Which “solubility in water (in words)” value ([1]; water) does the source give for `CC1=C(/C=C/C(C)=C/C=C/C(C)=C/C(=O)O)C(C)(C)CCC1` [Tretinoin] here?
A: The value was “practically insoluble in water”.

Q: And the “solubility in water (in words)” value ([1]; water, listed as tretinoin)?
A: The value was “insoluble in water”.

Q: What about the solubility (physchem; water) of the same compound?
A: The solubility was < 2 µg/mL.

Q: With `COc1cc(/C=C/C(=O)CC(=O)/C=C/c2ccc(O)c(OC)c2)ccc1O` [Curcumin] as the compound, how does the “solubility in water (in words)” value ([1]; water) read?
A: Its value is “practically insoluble in water”.

Q: And the solubility (physchem; water)?
A: Its solubility is < 2 µg/mL.

Q: Which “solubility in water (in words)” value ([1]; water) does the source give for `C[C@@H]1[C@H](O)[C@@H](C)/C=C/C=C/CC/C=C/C=C/C=C/C=C/C(O[C@H]2O[C@H](C)[C@@H](O)[C@H](N)[C@@H]2O)CC2O[C@](O)(CC(O)C(O)CCC(O)CC(O)CC(O)CC(=O)O[C@H]1C)CC(O)C2C(=O)O` (some centres unmarked) [nystatin] here?
A: Its value is “insoluble in water”.
